# Laboratory results from patent publication US10894775B2, “Piperidine derivatives as liver X receptor beta agonists, compositions, and their use” (Merck Sharp & Dohme Corp., priority 2016, dated 2021).
# Read-outs that look alike come from different tables or passages of the source.
# Columns and labels:
# [1] = target: T1, glutathione-S-transferase (GST) tagged LXRalpha LBD (ligand binding domain) (Homo sapiens, UniProt Q13133); assay: LanthaScreen TR-FRET Liver X Receptor Coactivator Assay, LXR alpha; format: biochemical; conditions: for Emax: read-out: LXR alpha actiivty at max dose (%); for LXR alpha IP (nM) / EC50: potency (Inflection Point) of compound-induced co-activator recruitment, TR-FRET
# T1 construct: purchased Invitrogen pv4655
# T1 sequence (Q13133 209-447 limits assumed): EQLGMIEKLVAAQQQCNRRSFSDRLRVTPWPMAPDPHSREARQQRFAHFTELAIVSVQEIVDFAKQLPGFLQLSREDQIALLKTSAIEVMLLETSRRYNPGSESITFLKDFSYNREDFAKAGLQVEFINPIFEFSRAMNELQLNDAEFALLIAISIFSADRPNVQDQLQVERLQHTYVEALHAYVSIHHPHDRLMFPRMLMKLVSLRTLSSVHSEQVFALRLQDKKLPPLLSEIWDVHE
# Experimental: (§1) While running the LanthaScreen™ TR-FRET Liver X Receptor Coactivator Assay, LXR alpha-LBD or LXR beta-LBD was added to ligand test compounds followed by addition of a mixture of a fluorescein-labelled coactivator peptide and terbium-conjugated anti-GST antibody. After an incubation period at room temperature, TR-FRET (time-resolved fluorescence resonance energy transfer) was measured using a filter-based instrument capable of TR-FRET, e.g. PerkinElmer Envision.
# [2] = target: T2, glutathione-S-transferase (GST) tagged LXRbeta LBD (ligand binding domain) (Homo sapiens, UniProt P55055); assay: LanthaScreen TR-FRET Liver X Receptor Coactivator Assay, LXR beta; format: biochemical; conditions: for Emax: read-out: LXR beta actiivty at max dose (%); for EC50: potency (Inflection Point) of compound-induced co-activator recruitment, TR-FRET
# T2 construct: purchased Invitrogen pv4658.pps
# T2 sequence (P55055 222-460 limits assumed): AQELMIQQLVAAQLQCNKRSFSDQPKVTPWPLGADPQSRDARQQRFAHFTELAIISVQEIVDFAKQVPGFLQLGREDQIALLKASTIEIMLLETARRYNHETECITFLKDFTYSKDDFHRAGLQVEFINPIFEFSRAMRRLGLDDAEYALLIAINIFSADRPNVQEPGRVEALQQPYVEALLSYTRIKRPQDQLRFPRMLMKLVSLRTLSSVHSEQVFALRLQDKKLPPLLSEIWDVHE
# Experimental: as §1
# [3] = efficacy (Emax) in relation to reference dual agonist T0901317
compound,measurement,setting,value
"CN(C)C(=O)c1ccc(CCCC2CC3(CCN(C(=O)C(O)(c4cccc(OC(F)(F)F)c4)C(F)(F)F)CC3)C2)cc1Cl (single isomer, unassigned) [Example 16-4, 2-chloro-N,N-dimethyl-4-(3-(7-((S or R)-3,3,3-trifluoro-2-hydroxy-2-(3-(trifluoromethoxy)phenyl)propanoyl)-7-azaspiro[3.5]nonan-2-yl)propyl)benzamide]",Emax,[1]; [3],8%
same,LXR alpha IP (nM),[1],No IP
same,Emax,[2]; [3],96%
same,EC50,[2]; read-out: LXR beta IP,58 nM
"CN(C)C(=O)c1ccc(NC[C@H]2C[C@H]2C2CCN(C(=O)[C@](O)(c3ccccc3)C(F)(F)F)CC2)cc1Cl (single isomer, unassigned) [Example 8-3, 2-chloro-N,N-dimethyl-4-(((1S,2S or 1R,2R)-2-(1-((R or S)-3,3,3-trifluoro-2-hydroxy-2-phenylpropanoyl)piperidin-4-yl)cyclopropyl)methylamino)benzamide]",Emax,[1]; [3],35%
same,EC50,[1]; read-out: LXR alpha IP,421 nM
same,Emax,[2]; [3],50%
same,EC50,[2]; read-out: LXR beta IP,4 nM
"COc1cccc(C(O)(C(=O)N2CCC(CCCCCc3ccc(C(=O)N(C)C)c(Cl)c3)CC2)C(F)(F)F)c1 (single isomer, unassigned) [Example 15-5, (R or S)-2-chloro-N,N-dimethyl-4-(5-(1-(3,3,3-trifluoro-2-hydroxy-2-(3-methoxyphenyl)propanoyl)piperidin-4-yl)pentyl)benzamide]",Emax,[1]; [3],22%
same,EC50,[1]; read-out: LXR alpha IP,516 nM
same,Emax,[2]; [3],75%
same,EC50,[2]; read-out: LXR beta IP,16 nM
"CN(C)C(=O)c1ccc(CCCCCC2CCN(C(=O)C(O)(c3ccccc3)C(F)(F)F)CC2)cc1Cl (single isomer, unassigned) [Example 15-8, (R or S)-2-chloro-N,N-dimethyl-4-(5-(1-(3,3,3-trifluoro-2-hydroxy-2-phenylpropanoyl)piperidin-4-yl)pentyl)benzamide]",LXR alpha actiivty at max dose (%),[1]; [3],29%
same,EC50,[1]; read-out: LXR alpha IP,236 nM
same,Emax,[2]; [3],79%
same,EC50,[2]; read-out: LXR beta IP,9 nM
"CN(C)C(=O)c1ccc(N(C)CCC[C@@H]2CC23CCN(C(=O)[C@](O)(c2ccccc2)C(F)(F)F)CC3)cc1Cl (single isomer, unassigned) [Example 7-1, 2-chloro-N,N-dimethyl-4-(methyl(3-((R or S)-6-((R or S)-3,3,3-trifluoro-2-hydroxy-2-phenylpropanoyl)-6-azaspiro[2.5]octan-1-yl)propyl)amino)benzamide]",Emax,[1]; [3],28%
same,EC50,[1]; read-out: LXR alpha IP,683 nM
same,Emax,[2]; [3],103%
same,EC50,[2]; read-out: LXR beta IP,59 nM
"O=C(c1ccc(NCCC[C@@H]2CC23CCN(C(=O)[C@](O)(c2ccccc2)C(F)(F)F)CC3)cc1Cl)N1CCCC1 (single isomer, unassigned) [Example 6-4, (R or S)-1-((R or S)-1-(3-(3-chloro-4-(pyrrolidine-1-carbonyl)phenylamino)propyl)-6-azaspiro[2.5]octan-6-yl)-3,3,3-trifluoro-2-hydroxy-2-phenylpropan-1-one]",Emax,[1]; [3],6%
same,LXR alpha IP (nM),[1],No IP
same,Emax,[2]; [3],18%
same,EC50,[2]; read-out: LXR beta IP,34 nM
"COc1cccc(C(O)(C(=O)N2CCC3(CCC(Cc4ccc(C(=O)N(C)C)c(Cl)c4)CC3)CC2)C(F)(F)F)c1 (single isomer, unassigned) [Example 18-1, 2-chloro-N,N-dimethyl-4-((3-((R or S)-3,3,3-trifluoro-2-hydroxy-2-(3-methoxyphenyl)propanoyl)-3-azaspiro[5.5]undecan-9-yl)methyl)benzamide]",Emax,[1]; [3],21%
same,EC50,[1]; read-out: LXR alpha IP,739 nM
same,EC50,[2]; LXR beta IP (nM),72 nM
same,Emax,[2],65%
"CN(C)C(=O)c1c(F)cc(NCCC[C@H]2CC23CCN(C(=O)[C@](O)(c2ccccc2)C(F)(F)F)CC3)cc1F (single isomer, unassigned) [Example 6-5, 2,6-difluoro-N,N-dimethyl-4-(3-((S or R)-6-((R or S)-3,3,3-trifluoro-2-hydroxy-2-phenylpropanoyl)-6-azaspiro[2.5]octan-1-yl)propylamino)benzamide]",Emax,[1]; [3],19%
same,EC50,[1]; read-out: LXR alpha IP,2150 nM
same,Emax,[2]; [3],24%
same,EC50,[2]; read-out: LXR beta IP,49 nM
"COc1cccc([C@@](O)(C(=O)N2CCC3(CC2)CC(CCCc2ccc(C(=O)N(C)C)c(Cl)c2)C3)C(F)(F)F)c1 (single isomer, unassigned) [Example 16-1, 2-chloro-N,N-dimethyl-4-(3-(7-((R or S)-3,3,3-trifluoro-2-hydroxy-2-(3-methoxyphenyl)propanoyl)-7-azaspiro 13.51 nonan-2-yl)propyl)benzamide]",EC50,[1]; LXR alpha IP (nM),1540 nM
same,Emax,[1],19%
same,EC50,[2]; LXR beta IP (nM),132 nM
same,Emax,[2],100%
"CN(C)C(=O)c1ccc(NCCCC2CCN(S(=O)(=O)c3c(Cl)cccc3Cl)CC2)cc1Cl [Example 1-12, 2-chloro-4-(3-(1-(2,6-dichlorophenylsulfonyl)piperidin-4-yl)propylamino)-N,N-dimethylbenzamide]",Emax,[1]; [3],46%
same,EC50,[1]; read-out: LXR alpha IP,855 nM
same,Emax,[2]; [3],82%
same,EC50,[2]; read-out: LXR beta IP,27 nM
"CNC(=O)c1ccc(NCCCCC2CCN(C(=O)C(O)(c3cc(Cl)cc(Cl)c3)C(F)(F)F)CC2)cc1Cl (single isomer, unassigned) [Example 1-11, (R or S)-2-chloro-4-(4-(1-(2-(3,5-dichlorophenyl)-3,3,3-trifluoro-2-hydroxypropanoyl)piperidin-4-yl)butylamino)-N-methylbenzamide]",Emax,[1]; [3],0%
same,LXR alpha IP (nM),[1],No IP
same,Emax,[2]; [3],29%
same,EC50,[2]; read-out: LXR beta IP,3 nM
"CNC(=O)c1ccc(NCCCCC2CCN(C(=O)C(O)(c3cccc(OC4CC4)c3)C(F)(F)F)CC2)cc1Cl (single isomer, unassigned) [Example 1-7, (S or R)-2-chloro-4-(4-(1-(2-(3-cyclopropoxyphenyl)-3,3,3-trifluoro-2-hydroxypropanoyl)piperidin-4-yl)butylamino)-N-methylbenzamide]",Emax,[1]; [3],19%
same,EC50,[1]; read-out: LXR alpha IP,3160 nM
same,Emax,[2]; [3],56%
same,EC50,[2]; read-out: LXR beta IP,14 nM
"CN(C)C(=O)c1ccc(N(C)CCCC2CCN(C(=O)C(O)(c3ccccc3)C(F)(F)F)CC2)cc1Cl (single isomer, unassigned) [Example 3-1, (S or R)-2-chloro-N,N-dimethyl-4-(methyl(3-(1-(3,3,3-trifluoro-2-hydroxy-2-phenylpropanoyl)piperidin-4-yl)propyl)amino)benzamide]",Emax,[1]; [3],16%
same,EC50,[1]; read-out: LXR alpha IP,1150 nM
same,EC50,[2]; LXR beta IP (nM),47 nM
same,Emax,[2],109%
"CCOc1cccc(C(O)(C(=O)N2CCC3(CCC(Sc4ccc(C(=O)N(C)C)c(Cl)c4)CC3)CC2)C(F)(F)F)c1 (single isomer, unassigned) [Example 19-3, 2-chloro-4-(3-((S or R)-2-(3-ethoxyphenyl)-3,3,3-trifluoro-2-hydroxypropanoyl)-3-azaspiro[5.5]undecan-9-ylthio)-N,N-dimethylbenzamide]",Emax,[1]; [3],0%
same,LXR alpha IP (nM),[1],No IP
same,Emax,[2]; [3],95%
same,EC50,[2]; read-out: LXR beta IP,136 nM
"CN(C)C(=O)c1ccc(CCC[C@H]2CC23CCN(C(=O)[C@](O)(c2ccccc2)C(F)(F)F)CC3)cc1Cl (single isomer, unassigned) [Example 17-2, 2-chloro-N,N-dimethyl-4-(3-((S or R)-6-((R or S)-3,3,3-trifluoro-2-hydroxy-2-phenylpropanoyl)-6-azaspiro[2.5]octan-1-yl)propyl)benzamide]",Emax,[1]; [3],35%
same,EC50,[1]; read-out: LXR alpha IP,395 nM
same,Emax,[2]; [3],128%
same,EC50,[2]; read-out: LXR beta IP,25 nM
"CNC(=O)c1ccc(NCCCCC2CCN(C(=O)C(O)(c3cccc(OC)c3)C(F)(F)F)CC2)cc1Cl (single isomer, unassigned) [Example 1-1, (R or S)-2-chloro-N-methyl-4-(4-(1-(3,3,3-trifluoro-2-hydroxy-2-(3-methoxyphenyl)propanoyl)piperidin-4-yl)butylamino)benzamide]",EC50,[1]; LXR alpha IP (nM),577 nM
same,Emax,[1],17%
same,Emax,[2]; [3],68%
same,EC50,[2]; read-out: LXR beta IP,8 nM
"CN(C)C(=O)c1ccc(NCCCCC2CCN(C(=O)C(O)(c3ccccc3)C(F)(F)F)CC2)nc1Cl (centres unmarked) [Example 2-1, 2-chloro-N,N-dimethyl-6-(4-(1-(3,3,3-trifluoro-2-hydroxy-2-phenylpropanoyl)piperidin-4-yl)butylamino)nicotinamide]",EC50,[1]; LXR alpha IP (nM),1250 nM
same,Emax,[1],25%
same,EC50,[2]; read-out: LXR beta IP,29 nM
same,Emax,[2],52%
